Measurements reported in ChEMBL document CHEMBL1201862, “PubChem BioAssay data set” (2004).
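1) Cells in 96-well plates. 2) Compound, 48 h, 5 concentrations. 3) Linear interpolation between surrounding doses. 4) Unreached endpoint = highest concentration. The concentration for 50% growth inhibition is given as GI50.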 Active and inactive are the calls of the source. No stated cut-off is given here; in the data, active = GI50 up to about 1.1 µM and inactive = higher.

Legend:
Test in all cases: growth of human tumour cells (NCI), 48 h
[1] = test system: SK-MEL-5
[2] = test system: A498
[3] = test system: HCC 2998
[4] = test system: NCI/ADR-RES
[5] = test system: EKVX
[6] = test system: MDA-MB-435
[7] = test system: NCI-H23
[8] = test system: Hs-578T
[9] = test system: MDA-N
[10] = test system: RPMI-8226
[11] = test system: UACC-62
[12] = test system: HT-29
[13] = test system: MCF7
[14] = test system: T47D
[15] = test system: HL-60
[16] = test system: SR
[17] = test system: 786-0
[18] = test system: IGROV-1
[19] = test system: ACHN
[20] = test system: DU-145

| Compound | GI50 [1] | GI50 [2] | GI50 [3] | GI50 [4] | GI50 [5] | GI50 [6] | GI50 [7] | GI50 [8] | GI50 [9] | GI50 [10] | GI50 [11] | GI50 [12] | GI50 [13] | GI50 [14] | GI50 [15] | GI50 [16] | GI50 [17] | GI50 [18] | GI50 [19] | GI50 [20] |
| --- | --- | --- | --- | --- | --- | --- | --- | --- | --- | --- | --- | --- | --- | --- | --- | --- | --- | --- | --- | --- |
| COc1ccc2[nH]c(C(=O)N3CC(CCl)c4ccc([N+](=O)[O-])cc43)cc2c1 (stereo unspecified) | > 100 µM (inactive) | > 100 µM (inactive) | > 100 µM (inactive) | > 100 µM (inactive) | 54.1 µM (inactive) | > 100 µM (inactive) | > 100 µM (inactive) | 37 µM (inactive) | > 100 µM (inactive) | > 100 µM (inactive) | > 100 µM (inactive) | > 95.7 µM (inactive) | 6.41 µM (inactive) | > 21.6 µM (inactive) | > 100 µM (inactive) | > 100 µM (inactive) | > 100 µM (inactive) | 64.1 µM (inactive) | > 100 µM (inactive) | > 100 µM (inactive) |
| COC(=O)C1C=CN(N(C)C)C2=C1C(=O)c1c(O)cccc1C2=O (stereo unspecified) | 0.54 µM (active) | 2.81 µM (inactive) | 1.93 µM (inactive) | 2.22 µM (inactive) | 2.79 µM (inactive) | 0.429 µM (active) | 1.63 µM (inactive) | 2.69 µM (inactive) | 0.422 µM (active) | 0.887 µM (active) | 1.04 µM (active) | 1.49 µM (inactive) | 1.95 µM (inactive) | 2.32 µM (inactive) | – | 0.152 µM (active) | 2.62 µM (inactive) | 2.1 µM (inactive) | 3.37 µM (inactive) | 1.58 µM (inactive) |
| CCOC(=O)c1nc2cc(C(F)(F)F)ccc2nc1Nc1cc(OC)c(OC)c(OC)c1 | > 100 µM (inactive) | > 100 µM (inactive) | > 100 µM (inactive) | > 100 µM (inactive) | > 100 µM (inactive) | > 100 µM (inactive) | > 100 µM (inactive) | > 100 µM (inactive) | > 100 µM (inactive) | > 100 µM (inactive) | > 100 µM (inactive) | > 100 µM (inactive) | > 100 µM (inactive) | > 100 µM (inactive) | > 100 µM (inactive) | > 100 µM (inactive) | > 100 µM (inactive) | > 100 µM (inactive) | > 100 µM (inactive) | > 100 µM (inactive) |
| COc1ccccc1/[N+]([O-])=C/c1ccccc1OC(=S)S | 34.2 µM (inactive) | 32.4 µM (inactive) | 14.7 µM (inactive) | 30.6 µM (inactive) | 30.4 µM (inactive) | 16.7 µM (inactive) | 28.2 µM (inactive) | 73.6 µM (inactive) | 17.7 µM (inactive) | 21.8 µM (inactive) | 32.9 µM (inactive) | > 100 µM (inactive) | 23.7 µM (inactive) | 17.6 µM (inactive) | 25.8 µM (inactive) | 31.5 µM (inactive) | 26.5 µM (inactive) | 19.6 µM (inactive) | 49.3 µM (inactive) | 70.5 µM (inactive) |
| COCN1C(=O)[C@@H]2CCCN2C(=O)c2ccc(Cl)cc21 | – | > 100 µM (inactive) | > 100 µM (inactive) | > 100 µM (inactive) | > 100 µM (inactive) | > 100 µM (inactive) | > 100 µM (inactive) | > 100 µM (inactive) | > 100 µM (inactive) | > 100 µM (inactive) | > 100 µM (inactive) | > 100 µM (inactive) | > 100 µM (inactive) | > 100 µM (inactive) | > 100 µM (inactive) | > 100 µM (inactive) | > 100 µM (inactive) | > 100 µM (inactive) | > 100 µM (inactive) | > 100 µM (inactive) |
| CCCS(=O)(=O)Nc1ccc(Nc2c3ccccc3nc3ccccc23)c(OC)c1 | 2 µM (inactive) | 0.904 µM (active) | 2.1 µM (inactive) | 3.95 µM (inactive) | 12.7 µM (inactive) | 5.28 µM (inactive) | 0.421 µM (active) | 3.16 µM (inactive) | 4.16 µM (inactive) | – | 0.695 µM (active) | 1.75 µM (inactive) | 0.365 µM (active) | 0.902 µM (active) | 0.126 µM (active) | 0.0236 µM (active) | 0.807 µM (active) | 1.31 µM (inactive) | 0.362 µM (active) | 0.271 µM (active) |
| COc1ccc(/C=C(\Cl)c2ccc(OC)c(OC)c2)cc1OC | > 100 µM (inactive) | > 43.5 µM (inactive) | > 100 µM (inactive) | > 100 µM (inactive) | > 100 µM (inactive) | > 100 µM (inactive) | > 100 µM (inactive) | > 100 µM (inactive) | > 100 µM (inactive) | > 100 µM (inactive) | > 100 µM (inactive) | > 100 µM (inactive) | > 100 µM (inactive) | > 100 µM (inactive) | > 100 µM (inactive) | > 100 µM (inactive) | > 100 µM (inactive) | > 100 µM (inactive) | > 100 µM (inactive) | > 100 µM (inactive) |
| CC(=O)OCC1OC(n2c(-c3ccc(C)cc3)cc(-c3ccccc3)c(C#N)c2=S)C(OC(C)=O)C(OC(C)=O)C1OC(C)=O (stereo unspecified) | 37.8 µM (inactive) | 31 µM (inactive) | > 100 µM (inactive) | > 100 µM (inactive) | > 100 µM (inactive) | > 100 µM (inactive) | > 100 µM (inactive) | 65.2 µM (inactive) | > 100 µM (inactive) | > 100 µM (inactive) | > 100 µM (inactive) | > 100 µM (inactive) | > 100 µM (inactive) | > 100 µM (inactive) | > 100 µM (inactive) | > 100 µM (inactive) | > 100 µM (inactive) | > 100 µM (inactive) | > 100 µM (inactive) | > 100 µM (inactive) |
| COC(=O)c1c(C(=O)OC)c(C(c2ccccc2)c2ccccc2)n(-c2ccccc2)c1Cl | > 10 µM (inactive) | > 10 µM (inactive) | > 10 µM (inactive) | 4.24 µM (inactive) | 5.75 µM (inactive) | 7.16 µM (inactive) | 6.76 µM (inactive) | 3.43 µM (inactive) | > 10 µM (inactive) | 3.35 µM (inactive) | 9.33 µM (inactive) | 4.61 µM (inactive) | 7.76 µM (inactive) | 4.74 µM (inactive) | 4.06 µM (inactive) | 3.17 µM (inactive) | > 10 µM (inactive) | > 10 µM (inactive) | 6.25 µM (inactive) | > 10 µM (inactive) |
| COc1ccc(/N=N/c2c(C)c(C#N)c(=S)n(C3OC(CO)C(O)C(O)C3O)c2-c2ccccc2)cc1 (stereo unspecified) | 11.5 µM (inactive) | 20.9 µM (inactive) | 88.5 µM (inactive) | 93.1 µM (inactive) | – | 24.5 µM (inactive) | 28.4 µM (inactive) | 21.5 µM (inactive) | 37.4 µM (inactive) | 36.1 µM (inactive) | 18.8 µM (inactive) | 32.5 µM (inactive) | 38.3 µM (inactive) | 27.1 µM (inactive) | 58.2 µM (inactive) | 32.1 µM (inactive) | 32 µM (inactive) | 30.4 µM (inactive) | 26 µM (inactive) | 32.1 µM (inactive) |
| Cc1ccc(S(=O)(=O)n2cc(C#N)c(C#N)c2)cc1 | 21.3 µM (inactive) | 24.7 µM (inactive) | 24.3 µM (inactive) | 31.8 µM (inactive) | 30.2 µM (inactive) | 19.8 µM (inactive) | 29.8 µM (inactive) | 24.7 µM (inactive) | 27.1 µM (inactive) | – | 17.3 µM (inactive) | 23.9 µM (inactive) | 22.3 µM (inactive) | 26.4 µM (inactive) | 26.5 µM (inactive) | 24.4 µM (inactive) | 36.2 µM (inactive) | 31.1 µM (inactive) | 19.3 µM (inactive) | 31.4 µM (inactive) |
| Brc1c(C#CCC2CCCCC2)ccc(C#CCC2CCCCC2)c1Br | > 100 µM (inactive) | > 100 µM (inactive) | > 100 µM (inactive) | > 100 µM (inactive) | > 100 µM (inactive) | > 100 µM (inactive) | – | > 100 µM (inactive) | > 100 µM (inactive) | > 100 µM (inactive) | > 100 µM (inactive) | – | > 100 µM (inactive) | > 100 µM (inactive) | > 100 µM (inactive) | > 100 µM (inactive) | > 100 µM (inactive) | > 100 µM (inactive) | > 100 µM (inactive) | > 100 µM (inactive) |
| COC1=C(OC)C(=O)C(Cc2c(C)nc3sccn23)=C(C)C1=O | 4.68 µM (inactive) | 14.9 µM (inactive) | 20.9 µM (inactive) | 14.4 µM (inactive) | 14.1 µM (inactive) | 13.6 µM (inactive) | 10.9 µM (inactive) | 19.3 µM (inactive) | 12.7 µM (inactive) | 2.48 µM (inactive) | 10.6 µM (inactive) | 16.4 µM (inactive) | 20.1 µM (inactive) | 18.2 µM (inactive) | – | 14.5 µM (inactive) | 19.1 µM (inactive) | 22.4 µM (inactive) | 14.9 µM (inactive) | 18.1 µM (inactive) |
| Fc1ccc(/C=C2\COCC3=C2NC(=S)NC3c2ccc(F)cc2)cc1 (stereo unspecified) | 19.4 µM (inactive) | 16 µM (inactive) | 18.5 µM (inactive) | 19.1 µM (inactive) | 20 µM (inactive) | 18.8 µM (inactive) | 20.6 µM (inactive) | 24.8 µM (inactive) | 17.6 µM (inactive) | 16.5 µM (inactive) | 17.2 µM (inactive) | – | 19.1 µM (inactive) | 26.1 µM (inactive) | 10.5 µM (inactive) | 19 µM (inactive) | 18.3 µM (inactive) | 24.9 µM (inactive) | 37 µM (inactive) | 26.5 µM (inactive) |
